Results published in PubChem BioAssay (NCI).
Values joined by “and” are separate entries in the source; they are usually repeats but may differ in a detail not shown here. Identical values can stand only once.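 These data come from cells grown in 96-well plates and exposed to compound for 48 hours at five concentrations. At the GI50, growth is halved. Definition used: TGI = concentration required for complete inhibition of growth.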

How the values were obtained:
Assay in all cases: NCI anticancer screen, dose series, 48 h
SNB-19 CNS = tested on: SNB-19 CNS
OVCAR-4 ovarian = tested on: OVCAR-4 ovarian
SF-268 CNS = tested on: SF-268 CNS
MOLT-4 leukemia = tested on: MOLT-4 leukemia
ACHN renal = tested on: ACHN renal
SF-295 CNS = tested on: SF-295 CNS
TK-10 renal = tested on: TK-10 renal
HCT-15 colon = tested on: HCT-15 colon
M14 melanoma = tested on: M14 melanoma
MDA-MB-231 breast = tested on: MDA-MB-231 breast
HOP-62 NSCLC = tested on: HOP-62 NSCLC

Structure (SMILES) | TGI (SNB-19 CNS) | TGI (OVCAR-4 ovarian) | TGI (SF-268 CNS) | TGI (MOLT-4 leukemia) | TGI (ACHN renal) | TGI (SF-295 CNS) | TGI (TK-10 renal) | TGI (HCT-15 colon) | TGI (M14 melanoma) | TGI (MDA-MB-231 breast) | TGI (HOP-62 NSCLC) | GI50 (OVCAR-4 ovarian) | GI50 (SF-268 CNS) | GI50 (ACHN renal) | GI50 (HOP-62 NSCLC) | GI50 (SF-295 CNS) | GI50 (TK-10 renal) | GI50 (HCT-15 colon) | GI50 (M14 melanoma) | GI50 (MDA-MB-231 breast)
S=c1[nH]c(=S)c2cc(Sc3ccc4[nH]c(=S)[nH]c(=S)c4c3)ccc2[nH]1 | 78.2 µM | 49.7 µM | 68 µM | > 100 µM | > 100 µM | 47.1 µM | 67.7 µM | > 100 µM | > 100 µM | > 100 µM |  |  |  |  |  |  |  |  |  | 
OC1COC(n2c3ccc(Br)cc3c3ccc4c5ccccc5[nH]c4c32)C(O)C1O (configuration not stated) | 28.2 µM | > 46.2 µM | 19.9 µM | 11.2 µM | 10.9 µM | 10.6 µM | 13.9 µM | 15.7 µM | 15.3 µM | 7.47 µM | 14.7 µM |  |  |  |  |  |  |  |  | 
CC[C@@H](/C=C\CCC1(C[C@H](O)CCC=C(C)C)OCCO1)O[Si](C(C)C)(C(C)C)C(C)C | 33.8 µM | > 100 µM | 41.9 µM | 45.4 µM | 33.6 µM | 43.1 µM | 39.3 µM | 42.8 µM | 72.7 µM | 31.2 µM | > 100 µM |  |  |  |  |  |  |  |  | 
CC(C)CCn1c(=O)c2c(=O)[nH][nH]c2c2ccccc21 | > 100 µM | > 100 µM |  |  | > 100 µM | > 100 µM | > 100 µM | > 100 µM |  | > 100 µM | > 100 µM |  |  |  |  |  |  |  |  | 
Cc1cccc(NC(=S)Nc2ccccc2Cl)n1 | 97.5 µM | 57.8 µM | 62 µM | > 100 µM |  | > 100 µM | > 100 µM | > 100 µM | > 100 µM |  | 46.2 µM |  |  |  |  |  |  |  |  | 
COc1cccc(-c2cc(=O)c3c(C)ccnc3[nH]2)c1 | > 100 µM | > 100 µM | > 100 µM | > 100 µM | > 100 µM | > 100 µM | > 100 µM |  | > 100 µM | > 100 µM | > 100 µM |  |  |  |  |  |  |  |  | 
CC(C)=CCSC1CC2C(CC1(C)O)C2(C)C (configuration not stated) | 34.2 µM and 31.8 µM | 35 µM and 29.2 µM | 34.9 µM and 29.8 µM | 40.9 µM and 67.5 µM | 31 µM and 31.3 µM | 55.9 µM and 35.2 µM | 32.3 µM and 30.8 µM | 31.4 µM and 29.6 µM | 32 µM and 27.9 µM |  | 31.8 µM and 31.2 µM |  |  |  |  |  |  |  |  | 
CCN(CC)C(=S)SS(=O)(=O)c1ccc([N+](=O)[O-])cc1 | > 100 µM | > 100 µM | > 100 µM |  | > 100 µM | > 100 µM | > 100 µM | > 100 µM | 28.6 µM | 66.4 µM | > 100 µM | 45.5 µM | > 100 µM | 36.5 µM | 32.1 µM | 58.9 µM | 43.1 µM | 52.7 µM | 14.9 µM | 25.9 µM
COc1ccc(C2S/C(=C\c3ccc(O)cc3)C(=O)N2NC(=O)Cc2ccccc2)cc1 (configuration not stated) |  | > 100 µM | > 100 µM | > 100 µM | > 100 µM | > 100 µM | > 100 µM | > 100 µM | > 100 µM |  | > 100 µM |  |  |  |  |  |  |  |  | 
COC(=O)c1csc(-c2nc(CCNC(=O)OC(C)(C)C)sc2Br)n1 | > 100 µM |  | > 100 µM | > 100 µM | > 100 µM | > 100 µM | > 100 µM | > 100 µM | > 100 µM |  | > 100 µM |  |  |  |  |  |  |  |  | 
C[C@H](O)C1CC(Cn2nnc3c(N)ncnc32)C1(C)C (some centres not stated) | > 100 µM | > 100 µM | > 100 µM |  | > 100 µM | > 100 µM | > 100 µM | > 100 µM | > 100 µM | > 100 µM | > 100 µM |  |  |  |  |  |  |  |  | 
CNC1=CC(=O)C2=C(C1=O)[C@H]1CC[C@]3(C)C(=O)CC[C@H]3[C@@H]1CC2 | 40.8 µM | 37.4 µM |  | > 49.1 µM | 71.4 µM | 29.1 µM | > 100 µM | 27.5 µM | 28 µM | > 64.8 µM | 29.8 µM |  |  |  |  |  |  |  |  | 
COC(=O)c1cc(C#Cc2cc(OC)ccc2OC)ccc1OC | > 100 µM | > 100 µM | > 100 µM | 70 µM | > 100 µM |  | > 100 µM | > 100 µM | > 100 µM | > 100 µM |  |  |  |  |  |  |  |  |  | 
COc1cc(COC(=O)N2CCC2C(=O)O)c([N+](=O)[O-])cc1OC (configuration not stated) | > 100 µM |  | > 100 µM | > 100 µM | > 100 µM | > 100 µM | > 100 µM | > 100 µM | > 100 µM |  | > 100 µM |  |  |  |  |  |  |  |  | 
COC(=O)CCC12CCC(O1)c1ccccc12 (configuration not stated) | > 100 µM | > 100 µM |  | > 100 µM | > 100 µM | > 100 µM | > 100 µM | > 100 µM | > 100 µM | > 100 µM | > 100 µM |  |  |  |  |  |  |  |  | 
N#Cc1ccc(OCc2nc3cc(C(F)(F)F)ccc3nc2-c2ccccc2)cc1 | > 100 µM | > 100 µM | > 100 µM | > 100 µM | > 100 µM | > 100 µM | > 100 µM |  | > 100 µM | > 100 µM | > 100 µM |  |  |  |  |  |  |  |  | 
NC(=O)N1N=C2c3ccccc3SC[C@H]2[C@@H]1c1ccccc1 | > 100 µM | 73.4 µM | > 100 µM | 77.4 µM | > 100 µM | 80.4 µM | 92.6 µM | > 100 µM |  |  | 65.6 µM |  |  |  |  |  |  |  |  | 
CC1(C)Oc2ccc3c(=O)cc(-c4ccc(F)cc4)oc3c2C1C(=O)O (configuration not stated) |  |  | > 100 µM | > 100 µM |  | > 100 µM | > 100 µM |  | > 100 µM | > 100 µM | > 100 µM |  |  |  |  |  |  |  |  | 
COCc1cc2c(cc1/C=C/[N+](=O)[O-])OCO2 |  |  | 40.4 µM | > 100 µM | 30.9 µM | 36.3 µM | 30.8 µM | 36.8 µM | 30.6 µM | 34.7 µM | 35.8 µM |  |  |  |  |  |  |  |  | 
Clc1ccc(C2NN=C3c4ccccc4OCC32)cc1 (configuration not stated) | > 100 µM | > 73.1 µM | > 81 µM | 26.9 µM | > 100 µM |  | > 100 µM | 13.5 µM | > 45.1 µM | 6.91 µM | > 93.5 µM |  |  |  |  |  |  |  |  | 
COC(=O)C1C2C=CC(C2)N1[C@@H](C)c1ccccc1 (some centres not stated) | > 100 µM |  | > 100 µM |  | > 100 µM | > 100 µM | > 100 µM | > 100 µM | > 100 µM |  | > 100 µM |  |  |  |  |  |  |  |  | 
